Measured values as given in PubChem BioAssay AID2060895 (Molecular Pharmacology Branch, DTP, NCI, 2025).
“And” between values parts separate entries of the source, which are not always exact repeats. Equal entries are not always repeated.

Tested on: PDC 899932-113-R3-J6 complex spheroid viability
Assay: Anticancer human tumor 899932-113-R3-J6-PDC patient-derived melanoma cell line growth inhibition [RAS]
Conditions: for viability, T/C: stronger effect = lower value
Method in brief: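 Agents were tested in combination matrices in half-log decrements from a top concentration at or near clinical Cmax (10 microM if undetermined). Targets were multi-cell spheroids of tumour lines plus HUVEC and MSC stromal cells.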

[1] = curve of first compound, second compound 0.000949 µM
[2] = curve of first compound, second compound 0.003 µM
[3] = curve of first compound, second compound 0.00949 µM
[4] = curve of first compound, second compound 0.03 µM
[5] = curve of first compound, second compound 0.0949 µM
[6] = curve of first compound, second compound 0.3 µM
[7] = second compound 0.000949 µM, first compound 0.00316 µM
[8] = second compound 0.000949 µM, first compound 0.01 µM
[9] = second compound 0.000949 µM, first compound 0.0316 µM
[10] = second compound 0.000949 µM, first compound 0.1 µM
[11] = second compound 0.000949 µM, first compound 0.316 µM
[12] = second compound 0.000949 µM, first compound 1 µM
[13] = second compound 0.003 µM, first compound 0.00316 µM
[14] = second compound 0.003 µM, first compound 0.01 µM
[15] = second compound 0.003 µM, first compound 0.0316 µM
[16] = second compound 0.003 µM, first compound 0.1 µM
[17] = second compound 0.003 µM, first compound 0.316 µM
[18] = second compound 0.003 µM, first compound 1 µM
[19] = second compound 0.00949 µM, first compound 0.00316 µM
[20] = second compound 0.00949 µM, first compound 0.01 µM
[21] = second compound 0.00949 µM, first compound 0.0316 µM
[22] = second compound 0.00949 µM, first compound 0.1 µM
[23] = second compound 0.00949 µM, first compound 0.316 µM
[24] = second compound 0.00949 µM, first compound 1 µM
[25] = second compound 0.03 µM, first compound 0.00316 µM
[26] = second compound 0.03 µM, first compound 0.01 µM
[27] = second compound 0.03 µM, first compound 0.0316 µM
[28] = second compound 0.03 µM, first compound 0.1 µM
[29] = second compound 0.03 µM, first compound 0.316 µM
[30] = second compound 0.03 µM, first compound 1 µM
[31] = second compound 0.0949 µM, first compound 0.00316 µM
[32] = second compound 0.0949 µM, first compound 0.01 µM
[33] = second compound 0.0949 µM, first compound 0.0316 µM
[34] = second compound 0.0949 µM, first compound 0.1 µM
[35] = second compound 0.0949 µM, first compound 0.316 µM
[36] = second compound 0.0949 µM, first compound 1 µM
[37] = second compound 0.3 µM, first compound 0.00316 µM
[38] = second compound 0.3 µM, first compound 0.01 µM
[39] = second compound 0.3 µM, first compound 0.0316 µM
[40] = second compound 0.3 µM, first compound 0.1 µM
[41] = second compound 0.3 µM, first compound 0.316 µM
[42] = second compound 0.3 µM, first compound 1 µM
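Wherever viability, T/C is given: spheroids exposed to agents for seven days before readout; 100% = DMSO vehicle control wells.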

`C=CC(=O)Nc1cc(Nc2nccc(-c3cn(C)c4ccccc34)n2)c(OC)cc1N(C)CCN(C)C` + CCn1c(-c2cccnc2C(C)OC)c2c3cc(ccc31)N1CCOC(CC(NC(=O)C(C(C)C)N(C)C(=O)C3(F)CCN(C(=O)C#CC(C)(C)N(C)C)CC3)C(=O)N3CCCC(N3)C(=O)OCC(C)(C)C2)C1 gave an IC50 [1] greater than 1000 nM, an IC50 [2] greater than 1000 nM and an IC50 [3] greater than 1000 nM. It also gave an IC50 [4] greater than 1000 nM, an IC50 [5] greater than 1000 nM and an IC50 [6] greater than 1000 nM. The viability, T/C [7] was 113%, the viability, T/C [8] was 98.3% and the viability, T/C [9] was 101%. It also gave a viability, T/C [10] of 106%, a viability, T/C [11] of 115% and a viability, T/C [12] of 102%. For the same compound, the viability, T/C [13] was 104%, the viability, T/C [14] was 116% and the viability, T/C [15] was 107%. The viability, T/C [16] was 104%, the viability, T/C [17] was 112% and the viability, T/C [18] was 99.5%. It also gave a viability, T/C [19] of 108%, a viability, T/C [20] of 102% and a viability, T/C [21] of 108%. The viability, T/C [22] was 101%, the viability, T/C [23] was 110% and the viability, T/C [24] was 95.1%. The viability, T/C [25] was 104%, the viability, T/C [26] was 102% and the viability, T/C [27] was 101%. The viability, T/C [28] was 112%, the viability, T/C [29] was 112% and the viability, T/C [30] was 100%. For the same compound, the viability, T/C [31] was 102%, the viability, T/C [32] was 99.1% and the viability, T/C [33] was 103%. For the same compound, the viability, T/C [34] was 105%, the viability, T/C [35] was 104% and the viability, T/C [36] was 89.8%. The viability, T/C [37] was 96.5%, the viability, T/C [38] was 85.5% and the viability, T/C [39] was 96%. The viability, T/C [40] was 92.3%, the viability, T/C [41] was 90.9% and the viability, T/C [42] was 85.8%.

`CCc1c2c(nc3ccc(O)cc13)-c1cc3c(c(=O)n1C2)COC(=O)[C@]3(O)CC` + CCn1c(-c2cc(N3CCN(C)CC3)cnc2C(C)OC)c2c3cc(ccc31)-c1csc(n1)CC(NC(=O)C1CC1C)C(=O)N1CCCC(N1)C(=O)OCC(C)(C)C2 was tested, and the IC50 [1] was 2 nM, the IC50 [2] was less than 0.949 nM and the IC50 [3] was less than 0.949 nM. It also gave an IC50 [4] of less than 0.949 nM, an IC50 [5] of less than 0.949 nM and an IC50 [6] of less than 0.949 nM. It also gave a viability, T/C (second compound 0.000949 µM, first compound 0.000949 µM) of 63.8%, a viability, T/C (second compound 0.000949 µM, first compound 0.003 µM) of 39.8% and a viability, T/C (second compound 0.000949 µM, first compound 0.00949 µM) of 36%. It also gave a viability, T/C (second compound 0.000949 µM, first compound 0.03 µM) of 26.9%, a viability, T/C (second compound 0.000949 µM, first compound 0.0949 µM) of 22.6% and a viability, T/C (second compound 0.000949 µM, first compound 0.3 µM) of 23%. It also gave a viability, T/C (second compound 0.003 µM, first compound 0.000949 µM) of 31.1%, a viability, T/C (second compound 0.003 µM, first compound 0.003 µM) of 24.2% and a viability, T/C (second compound 0.003 µM, first compound 0.00949 µM) of 16.4%. It also gave a viability, T/C (second compound 0.003 µM, first compound 0.03 µM) of 16.1%, a viability, T/C (second compound 0.003 µM, first compound 0.0949 µM) of 13.4% and a viability, T/C (second compound 0.003 µM, first compound 0.3 µM) of 14%. The viability, T/C (second compound 0.00949 µM, first compound 0.000949 µM) was 3.79%, the viability, T/C (second compound 0.00949 µM, first compound 0.003 µM) was 3.32% and the viability, T/C (second compound 0.00949 µM, first compound 0.00949 µM) was 3.11%. For the same compound, the viability, T/C (second compound 0.00949 µM, first compound 0.03 µM) was 3.28%, the viability, T/C (second compound 0.00949 µM, first compound 0.0949 µM) was 3.1% and the viability, T/C (second compound 0.00949 µM, first compound 0.3 µM) was 3.34%. The viability, T/C (second compound 0.03 µM, first compound 0.000949 µM) was 2.49%, the viability, T/C (second compound 0.03 µM, first compound 0.003 µM) was 2.47% and the viability, T/C (second compound 0.03 µM, first compound 0.00949 µM) was 2.92%. It also gave a viability, T/C (second compound 0.03 µM, first compound 0.03 µM) of 2.25%, a viability, T/C (second compound 0.03 µM, first compound 0.0949 µM) of 2.41% and a viability, T/C (second compound 0.03 µM, first compound 0.3 µM) of 2.31%. The viability, T/C (second compound 0.0949 µM, first compound 0.000949 µM) was 2.12%, the viability, T/C (second compound 0.0949 µM, first compound 0.003 µM) was 2.87% and the viability, T/C (second compound 0.0949 µM, first compound 0.00949 µM) was 2.12%. The viability, T/C (second compound 0.0949 µM, first compound 0.03 µM) was 2.27%, the viability, T/C (second compound 0.0949 µM, first compound 0.0949 µM) was 1.31% and the viability, T/C (second compound 0.0949 µM, first compound 0.3 µM) was 1.12%. For the same compound, the viability, T/C (second compound 0.3 µM, first compound 0.000949 µM) was 1.75%, the viability, T/C (second compound 0.3 µM, first compound 0.003 µM) was 2.65% and the viability, T/C (second compound 0.3 µM, first compound 0.00949 µM) was 2.22%. For the same compound, the viability, T/C (second compound 0.3 µM, first compound 0.03 µM) was 1.86%, the viability, T/C (second compound 0.3 µM, first compound 0.0949 µM) was 1.47% and the viability, T/C (second compound 0.3 µM, first compound 0.3 µM) was 1.58%.

For `C=CC(=O)N1CCN(c2nc(OCC3CCCN3C)nc3c(F)c(-c4nc(N)cc(C)c4C(F)(F)F)c(Cl)cc23)C(C)C1` (stereo not drawn) + CCn1c(-c2cccnc2C(C)OC)c2c3cc(ccc31)N1CCOC(CC(NC(=O)C(C(C)C)N(C)C(=O)C3(F)CCN(C(=O)C#CC(C)(C)N(C)C)CC3)C(=O)N3CCCC(N3)C(=O)OCC(C)(C)C2)C1, the IC50 [1] was greater than 1000 nM, the IC50 [2] was greater than 1000 nM and the IC50 [3] was greater than 1000 nM. It also gave an IC50 [4] greater than 1000 nM, an IC50 [5] greater than 1000 nM and an IC50 [6] greater than 1000 nM. For the same compound, the viability, T/C [7] was 113%, the viability, T/C [8] was 101% and the viability, T/C [9] was 118%. It also gave a viability, T/C [10] of 106%, a viability, T/C [11] of 108% and a viability, T/C [12] of 105%. It also gave a viability, T/C [13] of 107%, a viability, T/C [14] of 118% and a viability, T/C [15] of 105%. For the same compound, the viability, T/C [16] was 108%, the viability, T/C [17] was 108% and the viability, T/C [18] was 104%. For the same compound, the viability, T/C [19] was 110%, the viability, T/C [20] was 107% and the viability, T/C [21] was 102%. For the same compound, the viability, T/C [22] was 107%, the viability, T/C [23] was 112% and the viability, T/C [24] was 106%. It also gave a viability, T/C [25] of 106%, a viability, T/C [26] of 97% and a viability, T/C [27] of 110%. It also gave a viability, T/C [28] of 110%, a viability, T/C [29] of 114% and a viability, T/C [30] of 104%. The viability, T/C [31] was 101%, the viability, T/C [32] was 102% and the viability, T/C [33] was 96%. It also gave a viability, T/C [34] of 101%, a viability, T/C [35] of 95.2% and a viability, T/C [36] of 92.8%. The viability, T/C [37] was 91.2%, the viability, T/C [38] was 87% and the viability, T/C [39] was 92.1%. The viability, T/C [40] was 87.9%, the viability, T/C [41] was 84.9% and the viability, T/C [42] was 90.9%.

For `C=CC(=O)Nc1cc(Nc2nccc(-c3cn(C)c4ccccc34)n2)c(OC)cc1N(C)CCN(C)C`, the viability, T/C (compound 0.00316 µM) was 109% [middle of 4 runs], the viability, T/C (compound 0.01 µM) was 98.4% [middle of 4 runs] and the viability, T/C (compound 0.0316 µM) was 101% [middle of 4 runs]. The viability, T/C (compound 0.1 µM) was 104% and 102% (2×) and 101%, the viability, T/C (compound 0.316 µM) was 106% [middle of 4 runs] and the viability, T/C (compound 1 µM) was 100% [middle of 4 runs]. The IC50 (curve of compound) was greater than 1000 nM.
